Measurements published in ChEMBL document CHEMBL4840301, “Homophymamide A, Heterodetic Cyclic Tetrapeptide from a Homophymia sp. Marine Sponge: A Cautionary Note on Configurational Assignment of Peptides That Contain a Ureido Linkage” (J Nat Prod, 2021).

Molecular target: T1, Carboxypeptidase B (Sus scrofa, UniProt P09955)
T1 sequence (P09955 whole entry): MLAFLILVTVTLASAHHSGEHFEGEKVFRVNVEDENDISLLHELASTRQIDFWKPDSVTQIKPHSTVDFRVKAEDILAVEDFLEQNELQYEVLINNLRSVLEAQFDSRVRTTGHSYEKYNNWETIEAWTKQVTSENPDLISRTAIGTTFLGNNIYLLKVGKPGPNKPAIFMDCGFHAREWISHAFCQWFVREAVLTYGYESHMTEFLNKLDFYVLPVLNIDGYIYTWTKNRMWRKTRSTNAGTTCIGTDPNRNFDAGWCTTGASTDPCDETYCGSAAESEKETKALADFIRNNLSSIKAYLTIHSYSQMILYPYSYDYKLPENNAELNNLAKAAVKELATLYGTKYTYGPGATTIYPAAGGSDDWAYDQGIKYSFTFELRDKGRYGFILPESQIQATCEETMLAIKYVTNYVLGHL
Assay: Inhibition of carboxypeptidase B in porcine pancreas using hippuryl-L-Arg as substrate preincubated with substrate for 2 mins followed by enzyme addition and measured after 5 mins by colorimetric method
Assay type: tissue-based

IC50: 0.59 µM
Compound: CC[C@H](C)[C@@H]1NC(=O)[C@H](CC(C)C)N(C)C(=O)[C@H](C)NC(=O)[C@H](NC(=O)N[C@@H](CCCNC(=N)N)C(=O)O)CCCCNC1=O
